Data reported in patent publication US20170007675A1, “STABLE PEPTIDE FORMULATIONS AND METHODS FOR PREPARATION” (XERIS PHARMACEUTICALS, INC., priority 2014, published 2017).

Settings: 0.9 mg/mL in neat DMSO; 40° C.; six weeks; N=3
Method: Sample solutions (N=3) were prepared by solubilizing the lyophilized powder directly in neat DMSO to a concentration of 0.9 mg/mL pramlintide acetate. To test formulation stability in the polar aprotic solvent, the samples (N=3) were stored in sealed glass vials at 40° C. for six weeks.

Pramlintide acetate
appearance of sample solutions after storage: clear and absent of precipitation and visible aggregates
